In US5767236A, “Linear therapeutic peptides” (Biomeasure, Inc., priority 1995, dated 1998):
Non-standard residues stand in square brackets, D forms with d. Residues, ends and D or L forms follow the SMILES beside them. *: point of attachment. Propionyl = CCC(=O)*

Experiments:
[1] = target: T1, GRP receptor (Rattus norvegicus, UniProt P52500); assay: Assay on binding to GRP receptor ([125I-Tyr4]bombesin displacement, AR42J cell membranes); settings: for IC50: rat AR42J cell membranes, [125I-Tyr4]bombesin, 30 min, 4° C., read-out: IC50, affinity binding for the GRP receptors
T1 construct: endogenous in cells; host or cells: rat AR42J pancreatic acinar cells (membrane preparation)
T1 sequence (P52500 whole entry): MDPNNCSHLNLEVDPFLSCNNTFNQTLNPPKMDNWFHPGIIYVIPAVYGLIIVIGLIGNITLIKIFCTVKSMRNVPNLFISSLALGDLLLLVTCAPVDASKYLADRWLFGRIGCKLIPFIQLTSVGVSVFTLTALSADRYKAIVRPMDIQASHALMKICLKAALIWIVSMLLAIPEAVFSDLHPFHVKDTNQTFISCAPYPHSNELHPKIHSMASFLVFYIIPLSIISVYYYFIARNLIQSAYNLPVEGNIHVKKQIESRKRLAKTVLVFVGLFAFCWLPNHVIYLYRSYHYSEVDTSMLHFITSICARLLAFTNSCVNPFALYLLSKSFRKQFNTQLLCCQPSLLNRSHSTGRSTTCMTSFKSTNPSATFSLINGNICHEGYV
Description: Rat AR42J pancreatic acinar cells were cultured in Dulbecco's modified Eagle's medium without antibiotics and supplemented with 10% (vol/vol) fetal calf serum. The incubation atmosphere consisted of 10% C)2 -90% humidified air at 37° C.
Membranes for the bombesin receptor binding assay were obtained by homogenizing AR42J cells (Polytron, setting 6, 15 sec) in ice-cold 50 mM Tris-HCl (Buffer A) and centrifuging twice at 39,000× g (10 min), with an intermediate resuspension in fresh buffer. The final pellets were resuspended in 50 mM Tris-HCl, containing 0.1 mg/ml bacitracin, and 0.1% BSA (Buffer B), and held on ice for the receptor binding assay.
For assay, aliquots (0.4 ml) were incubated with 0.05 ml [^125 I-Tyr^4 ] bombesin (~2200 Ci/mmol, New England Nuclear) and Buffer B, with and without 0.05 ml of unlabeled competing analogs. After a 30 min incubation (4° C.), the bound [^125 I-Tyr^4 ] bombesin was separated from the free by rapid filtration through GF/B filters which had been previously soaked in 0.1% polyethyleneimine. The filters were then washed three times with 5 ml aliquots of ice-cold Buffer A. Specific binding was defined as the total [^125 I-Tyr^4 ] bombesin bound minus that bound in the presence of 1 μM unlabeled bombesin.

[2] = system: CX-5 colon tumor; assay: Subcutaneous tumor assay, CX-5 colon tumor; format: in vivo, human; settings: 100 μg/injection, s.c., b.i.d.
Description: (§1) Treatment of tumors induced by subcutaneous implantation of in vitro maintained cell cultures was initiated only when well established as progressively growing tumors in the first transplant generation from in vitro culture. "No takes" were culled and animals with tumors of similar size were carefully randomized into control and test groups.
(§2) Analogues were tested against all tumor systems except SCLC's and NSCLC's at a screening dose of 100 μg/injection, s.c., in the flank opposite from the tumor, b.i.d. Lung tumors (SCLC and NSCLC) were tested at 250 μg/injection, s.c., b.i.d. Rat breast tumors were tested at 400 Ag/injection, s.c., b.i.d., an equivalent extrapolation from the mouse dose.
(§3) In vivo transplantation established tumor systems were implanted s.c. as a 1-2 mm^3 mince of tumor tissue. Treatment was initiated within 2 to 3 days of implantation.
(§4) Tumor weights (mgs) from tumor dimensions (mm×mm) were calculated following the formula of a prolate ellipsoid: […]
(§5) L×W^2 /2, where L is the longer of the two measurements.
(§6) Tumor measurements were determined with a vernier caliper three times/week.
GOB-G Moderately differentiated adenocarcinoma, human, tested
as xenografts in athymic nude females.

[3] = system: different human and animal tumors; assay: Assay on inhibition of tumor growth, overall statement; format: in vivo; settings: summary of Table 3; inhibitory activity when Percent Test/Control < 80% T/C
Description: as §1, §2, §3, §4, §5, §6

[4] = system: 2PR121D(1)/R adenocarcinoma of the rat prostate; assay: Subcutaneous tumor assay, 2PR121D(1)/R prostate tumor; format: in vivo; settings: s.c. tumors in Nb strain rats, 100 μg/injection, b.i.d.
Description: as §1, §2, §3, §4, §5, §6
Androgen resistant, poorly
differentiated adenocarcinoma
of the rate prostate derived as an androgen resistant
subline of 2PR121D(1)/S. Tested as subcutaneous tumors

[5] = system: M7806 hepatoma; assay: Subcutaneous tumor assay, M7806 hepatoma; format: in vivo, rat; settings: 100 μg/injection, s.c., b.i.d.
Description: as §1, §2, §3, §4, §5, §6

[6] = system: 13762NF rat mammary tumor; assay: Subcutaneous tumor assay, 13762NF breast tumor; format: in vivo; settings: 13762NF in Fischer 344 strain rats; rat breast tumors tested at 400 Ag/injection, s.c., b.i.d.
Description: as §1, §2, §3, §4, §5, §6
13762NF Estrogen insensitive rat mammary tumor transplantable in
Fischer 344 strain rats.

[7] = system: A-549 human non-small cell lung cancer (NSCLC); assay: Subcutaneous tumor assay, A-549 lung tumor; format: in vivo
Description: as §1, §2, §3, §4, §5, §6
A-549 An in vitro maintained human non-small cell lung cancer
(NSCLC) obtained from the American Type Culture
Collection repository. Implanted s.c. as a cell
suspension and resultant tumors treated when tumors were […]

[8] = system: CX-1 colon tumor; assay: Subcutaneous tumor assay, CX-1 colon tumor; format: in vivo, human; settings: 100 μg/injection, s.c., b.i.d.
Description: as §1, §2, §3, §4, §5, §6
CZ-1 Mucinous adenocarcinoma, human, tested as xenografts in […]

[9] = system: MX-1 human mammary carcinoma; assay: Subcutaneous tumor assay, MX-1 breast tumor; format: in vivo; settings: MX-1, s.c. xenografts in athymic nude females, 100 μg/injection, b.i.d.
Description: as §1, §2, §3, §4, §5, §6
MX-1 Estrogen independent, human poorly
carcinoma. Tested as subcutaneous xenografts in athymic

[10] = system: 11095 squamous cell carcinoma of the rat prostate; assay: Subcutaneous tumor assay, 11095 prostate tumor; format: in vivo; settings: 11095, s.c. xenografts in athymic nudes, 100 μg/injection, b.i.d.
Description: as §1, §2, §3, §4, §5, §6
11095 Androgen insensitive, squamous cell carcinoma of the rat
prostate. Originating and transplantable in Fischer 344
strain rats. Tested as subcutaneous xenografts in […]

[11] = system: NCI-H345 human small cell lung cancer (SCLC); assay: Subcutaneous tumor assay, NCI-H345 lung tumor; format: in vivo
Description: as §1, §2, §3, §4, §5, §6
An in vitro maintained human small cell lung cancer
(SCLC) graciously prided by Dr. A. Gazdar. Cell
agglomerates produce slow, progressively growing tumors
in approximately 80% of athymic nude mice
when implanted subcutaneously. Tested as
well established subcutaneous
xenografts in athymic nudes.

[12] = system: M7777 hepatoma; assay: Subcutaneous tumor assay, M7777 hepatoma; format: in vivo, rat; settings: 100 μg/injection, s.c., b.i.d.
Description: as §1, §2, §3, §4, §5, §6

[13] = system: M5123 hepatoma; assay: Subcutaneous tumor assay, M5123 hepatoma; format: in vivo, rat; settings: 100 μg/injection, s.c., b.i.d.
Description: as §1, §2, §3, §4, §5, §6

[14] = system: MT/W9Q-S breast tumor; assay: Subcutaneous tumor assay, MT/W9Q-S breast tumor; format: in vivo; settings: rat breast tumors tested at 400 Ag/injection, s.c., b.i.d.
Description: as §1, §2, §3, §4, §5, §6

[15] = system: AT-3 carcinoma of the rat prostate; assay: Subcutaneous tumor assay, AT-3 prostate tumor; format: in vivo; settings: AT-3, s.c. xenografts in athymic nudes, 100 μg/injection, b.i.d.
Description: as §1, §2, §3, §4, §5, §6
AT-3 Androgen resistant, undifferentiated fast growing
carcinoma of the rat prostate. A subline of R-3327-H.
Tested as subcutaneous xenografts in athymic nudes.

CCCC[C@H](NC(=O)[C@H](Cc1ccccc1)NC(=O)[C@H](Cc1c[nH]cn1)NC(=O)CNC(=O)[C@@H](NC(=O)[C@H](C)NC(=O)[C@H](Cc1c[nH]c2ccccc12)NC(=O)[C@H](CCC(N)=O)NC(=O)[C@H](N)Cc1ccc(O)cc1)C(C)C)C(N)=O [BIM-26270, H--D-Tyr--Gln--Trp--Ala--Val--Gly--His--Phe--Nle--NH2]
IC50 [1]: 0.1 nM | increase in the affinity for the GRP receptor compared with litorin or Leu-litorin ([1]; ratio of IC50 values versus litorin / Leu-litorin): 24 to 230 times

CCC(=O)N[C@@H](Cc1c[nH]cn1)C(=O)N[C@@H](Cc1c[nH]c2ccccc12)C(=O)N[C@@H](C)C(=O)N[C@H](C(=O)N[C@H](C)C(=O)N[C@@H](Cc1c[nH]cn1)C(=O)N[C@@H](CC(C)C)C(=O)N[C@@H](CC(C)C)C(N)=O)C(C)C [BIM-26247, Propionyl-His-Trp-Ala-Val-D-Ala-His-Leu-Leu-NH2] (Propionyl-HWAV[dA]HLL-NH2)
Percent Test/Control (tumor weight) [2]: 54% | inhibition of the growth of different human and animal tumors [3]: capable of inhibiting the growth

CC(C)C[C@H](NC(=O)[C@H](CC(C)C)NC(=O)[C@H](Cc1c[nH]cn1)NC(=O)CNC(=O)[C@@H](NC(=O)[C@H](C)NC(=O)[C@H](Cc1c[nH]c2ccccc12)NC(=O)[C@H](CCC(N)=O)NC(=O)[C@H](N)Cc1ccccc1)C(C)C)C(N)=O [BIM-26187, H-D-Phe-Gln-Trp-Ala-Val-Gly-His-Leu-Leu-NH2]
IC50 [1]: 5 nM | Percent Test/Control (tumor weight) [4]: 70% | Percent Test/Control (tumor weight) [5]: 83% | Percent Test/Control (tumor weight) [6]: 70% | Percent Test/Control (tumor weight) [2]: 83% | Percent Test/Control (tumor weight) ([7]; A-549 NSCLC, implanted s.c., 250 μg/injection, s.c., b.i.d.): 63% | growth inhibitory effect on non-small cell lung carcinoma (NSCLC) ([7]; FIG. 2): capable of inhibiting | Percent Test/Control (tumor weight) [8]: 31% | Percent Test/Control (tumor weight) [9]: 78% | inhibition of the growth of different human and animal tumors [3]: capable of inhibiting the growth | Percent Test/Control (tumor weight) [10]: 50% | Percent Test/Control (tumor weight) ([11]; NCI-H345 SCLC, s.c. xenografts in athymic nudes, 250 μg/injection, s.c., b.i.d.): 66% | Percent Test/Control (tumor weight) [12]: 67% | Percent Test/Control (tumor weight) [13]: 62% | Percent Test/Control (tumor weight) [14]: 45% | Percent Test/Control (tumor weight) [15]: 36%

CCCC[C@H](NC(=O)[C@H](CC(C)C)NC(=O)[C@H](Cc1c[nH]cn1)NC(=O)CNC(=O)[C@@H](NC(=O)[C@H](C)NC(=O)[C@H](Cc1c[nH]c2ccccc12)NC(=O)[C@H](CCC(N)=O)NC(=O)[C@H](N)Cc1ccc(O)cc1)C(C)C)C(N)=O [BIM-26279, H--D-Tyr--Gln--Trp--Ala--Val--Gly--His--Leu--Nle--NH2]
IC50 [1]: 1.7 nM

CSCC[C@H](NC(=O)[C@H](Cc1ccccc1)NC(=O)[C@H](Cc1c[nH]cn1)NC(=O)CNC(=O)[C@@H](NC(=O)[C@H](C)NC(=O)[C@H](Cc1c[nH]c2ccccc12)NC(=O)[C@H](CCC(N)=O)NC(=O)[C@H](N)Cc1ccccc1)C(C)C)C(N)=O [BIM-26269, H--D-Phe--Gln--Trp--Ala--Val--Gly--His--Phe--Met--NH2]
IC50 [1]: 1.4 nM

CCCC[C@H](NC(=O)[C@H](Cc1ccccc1)NC(=O)[C@H](Cc1c[nH]cn1)NC(=O)CNC(=O)[C@@H](NC(=O)[C@H](C)NC(=O)[C@H](Cc1c[nH]c2ccccc12)NC(=O)[C@H](CCC(N)=O)NC(=O)[C@H](N)Cc1ccccc1)C(C)C)C(N)=O [BIM-26224, H-D-Phe-Gln-Trp-Ala-Val-Gly-His-Phe-Nle-NH2]
IC50 [1]: 0.7 nM | growth inhibitory effect on small cell lung carcinoma (SCLC) ([11]; FIG. 1): capable of inhibiting
